ChEMBL document CHEMBL3875216, “Synthesis of antimicrobial glucosamides as bacterial quorum sensing mechanism inhibitors” (Bioorg Med Chem, 2017)

Columns and labels:
[1] = tested on: Pseudomonas aeruginosa; assay: Inhibition of LasR-dependent quorum sensing activity in Pseudomonas aeruginosa MH602 harboring GFP-fused […] LasB promoter assessed as inhibition of 3-oxo-dodecanoyl HSL-induced GFP expression at 500 uM measured after 8 hrs by fluorescence assay relative to control
[2] = tested on: Escherichia coli; assay: Inhibition of LuxR-dependent quorum sensing activity in Escherichia coli MT102 harboring pJBA132 assessed as inhibition of OHHL-induced GFP expression at 1 mM measured after 24 hrs by fluorescence assay relative to control
[3] = tested on: Escherichia coli; assay: Growth inhibition of Escherichia coli MT102 at 500 uM after 24 hrs relative to control; details: MT102, 24 h, read-out: GI
[4] = tested on: Escherichia coli; assay: Growth inhibition of Escherichia coli MT102 at 1 mM after 24 hrs relative to control; details: MT102, 24 h, read-out: GI
[5] = tested on: Pseudomonas aeruginosa; assay: Growth inhibition of Pseudomonas aeruginosa MH602 at 500 uM after 8 hrs relative to control; details: MH602, 8 h, read-out: GI
[6] = tested on: Pseudomonas aeruginosa PA14; assay: Inhibition of quorum sensing-regulated pyocyanin production in Pseudomonas aeruginosa PA14 at 2 mM after 24 hrs relative to control
[7] = tested on: Escherichia coli; assay: Growth inhibition of Escherichia coli MT102 at 500 uM after 8 hrs relative to control; details: MT102, 8 h, read-out: GI
[8] = tested on: Pseudomonas aeruginosa; assay: Growth inhibition of Pseudomonas aeruginosa MH602 at 1 mM after 8 hrs relative to control; details: MH602, 8 h, read-out: GI
[9] = tested on: Pseudomonas aeruginosa; assay: Growth inhibition of Pseudomonas aeruginosa PA14 at 2 mM after 24 hrs relative to control; details: 2000 µM
[10] = tested on: Pseudomonas aeruginosa; assay: Inhibition of LasR-dependent quorum sensing activity in Pseudomonas aeruginosa MH602 harboring GFP-fused […] LasB promoter assessed as inhibition of 3-oxo-dodecanoyl HSL-induced GFP expression at 1 mM measured after 8 hrs by fluorescence assay relative to control
[11] = tested on: Pseudomonas aeruginosa; assay: Growth inhibition of Pseudomonas aeruginosa MH602 at 2 mM after 8 hrs relative to control; details: MH602, 8 h, read-out: GI
[12] = tested on: Escherichia coli; assay: Growth inhibition of Escherichia coli MT102 at 2 mM after 24 hrs relative to control; details: MT102, 24 h, read-out: GI
[13] = tested on: Pseudomonas aeruginosa; assay: Growth inhibition of Pseudomonas aeruginosa MH602 at 500 uM after 24 hrs relative to control; details: MH602, 24 h, read-out: GI
[14] = tested on: Pseudomonas aeruginosa; assay: Growth inhibition of Pseudomonas aeruginosa MH602 at 1 mM after 24 hrs relative to control; details: MH602, 24 h, read-out: GI
[15] = tested on: Pseudomonas aeruginosa; assay: Inhibition of LasR-dependent quorum sensing activity in Pseudomonas aeruginosa MH602 harboring GFP-fused […] LasB promoter assessed as inhibition of 3-oxo-dodecanoyl HSL-induced GFP expression at 2 mM measured after 8 hrs by fluorescence assay relative to control
[16] = tested on: Escherichia coli; assay: Growth inhibition of Escherichia coli MT102 at 1 mM after 8 hrs relative to control; details: MT102, 8 h, read-out: GI
[17] = tested on: Escherichia coli; assay: Growth inhibition of Escherichia coli MT102 at 2 mM after 8 hrs relative to control; details: MT102, 8 h, read-out: GI
[18] = tested on: Escherichia coli; assay: Inhibition of LuxR-dependent quorum sensing activity in Escherichia coli MT102 harboring pJBA132 assessed as inhibition of OHHL-induced GFP expression at 2 mM measured after 24 hrs by fluorescence assay relative to control
[19] = tested on: Escherichia coli; assay: Inhibition of LuxR-dependent quorum sensing activity in Escherichia coli MT102 harboring pJBA132 assessed as inhibition of OHHL-induced GFP expression at 1 mM measured after 8 hrs by fluorescence assay relative to control
[20] = tested on: Pseudomonas aeruginosa; assay: Growth inhibition of Pseudomonas aeruginosa MH602 at 2 mM after 24 hrs relative to control; details: MH602, 24 h, read-out: GI
[21] = tested on: Pseudomonas aeruginosa PA14; assay: Inhibition of quorum sensing-regulated biofilm formation in Pseudomonas aeruginosa PA14 at 2 mM after overnight incubation by crystal violet staining based assay relative to control
[22] = tested on: Escherichia coli; assay: Inhibition of LuxR-dependent quorum sensing activity in Escherichia coli MT102 harboring pJBA132 assessed as inhibition of OHHL-induced GFP expression at 2 mM measured after 8 hrs by fluorescence assay relative to control
[23] = tested on: Pseudomonas aeruginosa; assay: Inhibition of LasR-dependent quorum sensing activity in Pseudomonas aeruginosa MH602 harboring GFP-fused […] LasB promoter assessed as inhibition of 3-oxo-dodecanoyl HSL-induced GFP expression at 2 mM measured after 24 hrs by fluorescence assay relative to control
[24] = tested on: Escherichia coli; assay: Inhibition of LuxR-dependent quorum sensing activity in Escherichia coli MT102 harboring pJBA132 assessed as inhibition of OHHL-induced GFP expression at 500 uM measured after 8 hrs by fluorescence assay relative to control

| SMILES | inhibition [1] | inhibition [2] | inhibition at 500 µM [3] | inhibition at 1000 µM [4] | inhibition at 500 µM [5] | inhibition at 500 µM [7] | inhibition at 1000 µM [8] | growth inhibition (GI) [9] | inhibition [10] | inhibition at 2000 µM [11] | inhibition at 2000 µM [12] | inhibition at 500 µM [13] | inhibition at 1000 µM [14] | inhibition [15] | inhibition at 1000 µM [16] | inhibition at 2000 µM [17] | inhibition [18] | inhibition [19] | inhibition at 2000 µM [20] | inhibition [21] | further results |
| --- | --- | --- | --- | --- | --- | --- | --- | --- | --- | --- | --- | --- | --- | --- | --- | --- | --- | --- | --- | --- | --- |
| CCCCCCCCCC(=O)N[C@@H]1[C@@H](O)[C@H](O)[C@@H](CO)O[C@H]1O | 15.7% | 8.5% | 15.3% | 20% | 7.8% | 0% | 20.4% | Non-Toxic | 15.6% | 17.6% | 12.3% | 16.4% | 30.2% | 11.5% | 45% | 38.2% | 23.3% | 16.3% | 0% |  | inhibition [6]: 13.3% |
| CCCCCC(=O)N[C@@H]1[C@@H](O)[C@H](O)[C@@H](CO)O[C@H]1O | 12.9% | 15.8% | 0% | 8.4% | 7.1% | 0% | 10.5% | Non-Toxic | 13.1% | 19% | 0% | 0% | 19.2% | 10% | 11.7% | 24.6% | 42.7% | 10.7% | 3.1% | 9% |  |
| CC(=O)OC[C@H]1O[C@@H](OC(C)=O)[C@H](NC(=O)CC(=O)CCCc2ccccc2)[C@@H](OC(C)=O)[C@@H]1OC(C)=O | 6.5% | 43.4% | 0% | 4.9% | 0% | 3.3% | 11.7% | Non-Toxic |  | 24.8% | 5.1% | 0% | 19.6% | 24.4% | 2.6% | 21.8% | 34.2% | 26% | 0% |  | inhibition [22]: 12.8% |
| CC(=O)OC[C@H]1O[C@@H](OC(C)=O)[C@H](NC(=O)CCCc2ccccc2)[C@@H](OC(C)=O)[C@@H]1OC(C)=O | 7.3% | 21.1% | 5.2% | 19.7% | 7.3% | 15.1% | 30.9% | Non-Toxic | 4.9% | 37.2% | 26.7% | 0% | 25.9% | 5.2% | 64.7% | 93.2% | 43.8% | 18.1% | 3.3% |  |  |
| CCCCCCCCCCCC(=O)N[C@H]1[C@H](OC(C)=O)O[C@H](COC(C)=O)[C@@H](OC(C)=O)[C@@H]1OC(C)=O | 12.8% | 31.5% | 12.2% | 13.4% | 0% | 0% | 0% | Non-Toxic |  | 1.2% | 15% | 0% | 0% |  | 0% | 21.8% | 59.7% |  | 0% | 3.5% | inhibition [22]: 1.8%; inhibition [6]: 19.7%; inhibition [23]: 35.3% |
| CCCCCCCC(=O)N[C@@H]1[C@@H](O)[C@H](O)[C@@H](CO)O[C@H]1O | 17.5% | 48.2% | 0% | 4.4% | 3.4% | 0% | 0% | Non-Toxic | 12.2% | 21.3% | 0% | 0% | 0% | 23.2% | 10.6% | 30.7% | 45.7% |  | 65.4% | 14% | inhibition [22]: 16.7%; inhibition [6]: 11.7%; inhibition [23]: 21.3% |
| CC(=O)OC[C@H]1O[C@@H](OC(C)=O)[C@H](NC(=O)CCc2c[nH]c3ccccc23)[C@@H](OC(C)=O)[C@@H]1OC(C)=O | 9.3% |  | 2.6% | 0% | 2.3% | 0% | 0% | Non-Toxic | 32.6% | 0% | 0% | 3.5% | 3.5% | 53.8% | 0% | 0% | 28.5% | 2.3% | 0% |  | inhibition [22]: 65.5%; inhibition [23]: 7.4%; inhibition [24]: 13.5% |
| CCCC(=O)CC(=O)N[C@H]1[C@H](OC(C)=O)O[C@H](COC(C)=O)[C@@H](OC(C)=O)[C@@H]1OC(C)=O | 5.3% | 20.7% | 12.7% | 49.2% | 5.7% | 22.2% | 66.8% | Non-Toxic | 59.6% | 74.9% | 65.1% | 6.3% | 25.9% | 64.5% | 44.1% | 50.3% | 40.9% | 85.4% | 4.6% | 38.1% | inhibition [22]: 88.1%; inhibition [6]: 3.5% |
| CCCCCCCC(=O)N[C@H]1[C@H](OC(C)=O)O[C@H](COC(C)=O)[C@@H](OC(C)=O)[C@@H]1OC(C)=O | 14.4% |  | 6.2% | 9.6% | 2.7% | 23.7% | 2.5% | Non-Toxic | 8.5% | 33.1% | 21.4% | 0% | 0% |  | 0% | 14.9% | 14% | 2.3% | 2.8% | 21.1% | inhibition [22]: 36%; inhibition [23]: 26.1% |
| CCCCCCCCCCCC(=O)N[C@@H]1[C@@H](O)[C@H](O)[C@@H](CO)O[C@H]1O | 12.6% |  | 14.3% | 14.3% | 25.5% | 23.2% | 30.9% | Non-Toxic |  | 32% | 11.7% | 19.4% | 37.2% |  | 46.2% | 28.6% |  | 4.6% | 28.7% | 2.3% | inhibition [6]: 20.7% |
